Experiments:
[1] = In vitro release of DOC in PBS pH 7.4; type: physicochemical; settings: PBS pH 7.4, within 24 h
Description: The mass spectrum of the HRK‐19 peptide was shown in Figure S1 of the Supporting Information. And it can be seen the mass of HRK‐19 peptide was 1959.80 g mol^−1, which was consistent with the theoretical mass (1959.20 g mol^−1). The HRK‐19 peptide had ≥95% purity, as confirmed by analytical reversed‐phase (RP)‐high performance liquid chromatography (HPLC) (Figure S2, Supporting Information). As shown in Figure S3 of the Supporting Information, the HRK‐19 peptide contains no apparent secondary structure such as helix and Beta turn. […] To prepare a tumor‐targeting peptide, in this study, Asn‐Gly‐Arg‐Arg‐Gly‐Asp (NGRRGD) and three amino acids (HAV) were conjugated with apoptosis‐inducing peptide sequence AVPIAQK, forming bifunctional peptide (HRK‐19 peptide, HAVRNGRRGDGGAVPIAQK). As shown schematically in Figure 2 A, self‐assembly of the DOC/peptide NPs was prepared by the film dispersion method. […] It can be seen that the DL, and particle size increased with increase of drug/copolymer ratio in feed, whereas, the EE decreased accordingly. In consideration of DL and stability, the sample of S2 was chose for further applications and was characterized in detail. The DL and EE of DOC were 4.52 ± 0.18% and 90.50 ± 3.68%. […]

A549 cells [2] = assay: Microtubule formation (α-tubulin fluorescence microscopy); type: cell-based, human; settings: A549, 4 h
Description: Agents targeting microtubules are often used in cancer therapy. The taxanes act to stabilize microtubules and dampen microtubule dynamics to prevent the normal formation of mitotic spindles.34 Both paclitaxel and DOC can bind to β‐tubulin in assembled tubulin, thereby reducing depolymerization and leading to cell death.35 Therefore, we examined the effects of DOC on microtubule formation and cell apoptosis on A549 cells. […] However, at 10 × 10^−9 M, DOC begins to arrest A549 cells by interfering with the assembling/disassembling microtubule spindle.
Figure 5 The effects of DOC on the microtubule formation on the A549 cell lines. A549 cells were seeded on coverslip and treated with docetaxel of indicated concentrations for 4 h. The microtubule was determined by fluorescence microscopy. The red indicates the α‐tubulin and the blue is the DAPI stain for DNA. Scale bar: 20 µm.
For the expression and localization of α‐tubulin, cells were incubated with the antibodies against α‐tubulin (Abcam, USA) followed by incubation with TRITC‐conjugated secondary antibodies. The images were obtained using a confocal microscope (DM6000 CS, Leica, Germany).

A549 cells [3] = assay: Cell apoptosis assay (Annexin V-FITC/PI flow cytometry); type: cell-based, human; settings: A549, 24 h
Protocol: Given the effectiveness of transporting hydrophobic drug‐DOC into A549 cancer cells by the bifunctional peptide NPs, we carried out the cytotoxicity experiments to further evaluate the anticancer activity of DOC/peptide NPs on A549 by Flow cytometry analysis. Flow cytometry analysis was performed to monitor the percentage of cell apoptosis after the cells being stained by Annexin V‐Fluorescein isothiocyanate/propidium iodide (Annexin V‐FITC/PI) apoptosis detection kit, and A549 cells incubated in media only were used as control (Figure 6 A). The percentage of apoptosis of A549 cells (early and late apoptosis) incubated for 24 h with DOC/peptide containing DOC 5 × 10^−9 and 10 × 10^−9 M were 11.56 ± 0.91% and 20.66 ± 1.89%, respectively. For free DOC, they were 8.87 ± 0.79% and 15.73 ± 0.56%, respectively. Obviously, DOC‐loaded bifunctional peptide NPs induced significant cell apoptosis.
To investigate the apoptotic effect of the DOC/peptide NPs, flow cytometry was performed using an ESP Elite flow cytometer (BeckmaneCoulter, Miami, FL, USA) with FITC‐conjugated Annexin V/propidium iodide (PI, BD PharMingen) staining as per the manufacturer's instructions. A549 cells cultured in 6‐well plates were treated with DOC/peptide NPs, free DOC, and blank peptide. […] Both early apoptotic (Annexin V‐positive, PI‐negative) and late apoptotic (Annexin V‐positive and PI‐positive) cells were measured.

Peak release of DOC, % of the total drug [1]: 85.37 ± 1.83%
Structure (SMILES): CC(=O)O[C@@]12CO[C@@H]1C[C@H](O)[C@@]1(C)C(=O)[C@H](O)C3=C(C)[C@@H](OC(=O)[C@H](O)[C@@H](NC(=O)OC(C)(C)C)c4ccccc4)C[C@@](O)([C@@H](OC(=O)c4ccccc4)[C@H]21)C3(C)C [DOC, Docetaxel]
Concentration at which DOC begins to arrest cells by interfering with the microtubule spindle (A549 cells [2]): 10 nM
Percentage of apoptosis (early and late apoptosis) (A549 cells [3]; DOC 5 × 10^−9 M): 8.87 ± 0.79%
Percentage of apoptosis (early and late apoptosis) (A549 cells [3]; DOC 10 × 10^−9 M): 15.73 ± 0.56%
